# Measured values as given in the supplement of paper PMC11061612.
# Columns and labels:
# [1] = system: EW-24 (Ewing's Sarcoma); test: Bliss excess, mean over the matrix (fraction); higher = more synergy
# Summary of the method: (§1)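 Bliss excess equals the observed combination effect minus the expected value EA + EB − EA·EB, where EA and EB are the effects of each agent alone. Combination Emax is the second-highest inhibition within the matrix. Inhibition was scaled from CellTiter-Glo 2.0 luminescence, with 0 set by vehicle wells and 1 by blank wells, after 72 hours of two-drug dosing of cells plated in 1536-well plates.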
# [2] = system: TK10 (Kidney Carcinoma); test: combination Emax (second highest fraction inhibited in the dose matrix, 72 h); higher = more inhibition; extreme values may be limits of the assay
# Summary of the method: as §1
# [3] = system: KMOE-2 (Acute Myeloid Leukemia); test: as above
# Summary of the method: as §1
# [4] = system: RF-48 (B-Cell Non-Hodgkin's Lymphoma); test: as above
# Summary of the method: as §1
# [5] = system: C-4-I (Cervical Carcinoma); test: as above
# Summary of the method: as §1
# [6] = system: NCI-H1915 (Non-Small Cell Lung Carcinoma); test: as above
# Summary of the method: as §1
# [7] = system: EFM-19 (Breast Carcinoma); test: as above
# Summary of the method: as §1
# [8] = system: ACHN (Kidney Carcinoma); test: as above
# Summary of the method: as §1
# [9] = system: OVCAR-4 (Ovarian Carcinoma); test: as above
# Summary of the method: as §1
# [10] = system: KARPAS-299 (T-Cell Non-Hodgkin's Lymphoma); test: as above
# Summary of the method: as §1
# [11] = system: TE-1 (Esophageal Squamous Cell Carcinoma); test: as above
# Summary of the method: as §1
# [12] = system: Ca9-22 (Head and Neck Carcinoma); test: as above
# Summary of the method: as §1
# [13] = system: KYSE-450 (Esophageal Squamous Cell Carcinoma); test: as above
# Summary of the method: as §1
# [14] = system: UACC-62 (Melanoma); test: as above
# Summary of the method: as §1
# [15] = system: SCC-15 (Oral Cavity Carcinoma); test: as above
# Summary of the method: as §1
# [16] = system: BT-549 (Breast Carcinoma); test: as above
# Summary of the method: as §1
# [17] = system: VA-ES-BJ (Other Solid Carcinomas); test: as above
# Summary of the method: as §1
# [18] = system: SU8686 (Pancreatic Carcinoma); test: as above
# Summary of the method: as §1
# [19] = system: AMO-1 (Plasma Cell Myeloma); test: as above
# Summary of the method: as §1
# [20] = system: NEC8 (Other Solid Carcinomas); test: as above
# Summary of the method: as §1
Compound,Bliss excess [1],combination Emax [2],combination Emax [3],combination Emax [4],combination Emax [5],combination Emax [6],combination Emax [7],combination Emax [8],combination Emax [9],combination Emax [10],combination Emax [11],combination Emax [12],combination Emax [13],combination Emax [14],combination Emax [15],combination Emax [16],combination Emax [17],combination Emax [18],combination Emax [19],combination Emax [20]
"CC1(C)CCC(CN2CCN(c3ccc(C(=O)NS(=O)(=O)c4ccc(NCC5CCOCC5)c([N+](=O)[O-])c4)c(Oc4cnc5[nH]ccc5c4)c3)CC2)=C(c2ccc(Cl)cc2)C1 [Venetoclax] + Cc1cc2ncnn2cc1Nc1ncc2c(n1)n(C1CCOCC1)c(=O)n2C [AZD7648] (first compound max 1 µM, 7x7, partner max 10 µM)",-0.0699,0.281,0.427,0.321,0.222,0.641,0.417,0.725,0.19,0.837,0.0373,0.128,0.14,0.221,0.212,0.258,0.233,0.152,0.73,0.205
"CC1(C)CCC(CN2CCN(c3ccc(C(=O)NS(=O)(=O)c4ccc(NCC5CCOCC5)c([N+](=O)[O-])c4)c(Oc4cnc5[nH]ccc5c4)c3)CC2)=C(c2ccc(Cl)cc2)C1 [Venetoclax] + CN(C)CCCOc1ccc(-c2ccc3ncc4c(c3c2)n(C2CCOCC2)c(=O)n4C)cn1 [AZD0156] (first compound max 1 µM, 7x7, partner max 1 µM)",0.0147,0.304,0.207,0.212,0.269,0.285,0.546,0.78,0.173,0.807,0.098,0.48,0.15,0.487,0.245,0.179,0.227,0.152,0.814,0.174
"NC1(C(=O)N[C@@H](CCO)c2ccc(Cl)cc2)CCN(c2ncnc3[nH]ccc23)CC1 [Capivasertib] + CC(=O)c1c(C)c2cnc(Nc3ccc(N4CCNCC4)cn3)nc2n(C2CCCC2)c1=O [Palbociclib] (first compound max 10 µM, 7x7, partner max 10 µM)",0.0087,0.516,0.541,0.42,0.519,0.491,0.481,0.658,0.168,0.479,0.204,0.442,0.351,0.492,0.35,0.391,0.458,0.07,0.743,0.187
"CC(=O)c1c(C)c2cnc(Nc3ccc(N4CCNCC4)cn3)nc2n(C2CCCC2)c1=O [Palbociclib] + Cc1c2c(nn1C)CSCc1cc(n(C)n1)CSc1cc(c3ccccc3c1)OCCCc1c(C(=O)O)n(C)c3c-2c(Cl)ccc13 [AZD5991] (first compound max 10 µM, 7x7, partner max 1 µM)",-0.0178,0.353,0.65,0.298,0.896,0.447,0.255,0.626,0.191,0.968,0.194,0.267,0.263,0.588,0.191,0.455,0.283,0.0791,1,0.277
"COc1nnc2ccc(N3CCC(c4ccc(OCCN5CCN(C)C(=O)[C@H]5C)cc4)CC3)nn12 [AZD5153] + Cc1c2c(nn1C)CSCc1cc(n(C)n1)CSc1cc(c3ccccc3c1)OCCCc1c(C(=O)O)n(C)c3c-2c(Cl)ccc13 [AZD5991] (first compound max 1 µM, 7x7, partner max 1 µM)",-0.0044,0.593,0.936,0.473,0.933,0.502,0.773,0.537,0.523,0.978,0.511,0.815,0.494,0.969,0.436,0.814,0.566,0.134,1,1
"CC(=O)c1c(C)c2cnc(Nc3ccc(N4CCNCC4)cn3)nc2n(C2CCCC2)c1=O [Palbociclib] + CC1(C)CCC(CN2CCN(c3ccc(C(=O)NS(=O)(=O)c4ccc(NCC5CCOCC5)c([N+](=O)[O-])c4)c(Oc4cnc5[nH]ccc5c4)c3)CC2)=C(c2ccc(Cl)cc2)C1 [Venetoclax] (first compound max 10 µM, 7x7, partner max 1 µM)",0.0021,0.3,0.215,0.254,0.0751,0.466,0.0695,0.597,0.0611,0.495,0.179,0.2,0.126,0.0969,0.0783,0.308,0.257,0.0346,0.273,0.0159
"COc1nnc2ccc(N3CCC(c4ccc(OCCN5CCN(C)C(=O)[C@H]5C)cc4)CC3)nn12 [AZD5153] + Cn1cnc2c(F)c(Nc3ccc(Br)cc3Cl)c(C(=O)NOCCO)cc21 [Selumetinib] (first compound max 1 µM, 7x7, partner max 10 µM)",-0.0748,0.604,1,0.362,0.883,0.732,0.28,0.634,0.492,0.996,0.601,0.699,0.429,0.947,0.584,0.518,0.481,0.241,0.928,0.929
"Cn1cnc2c(F)c(Nc3ccc(Br)cc3Cl)c(C(=O)NOCCO)cc21 [Selumetinib] + C[C@@H]1COCCN1C2=NC(=NC(=C2)C3(CC3)[S@](=N)(=O)C)C4=C5C=CNC5=NC=C4 [AZD6738] (first compound max 10 µM, 7x7, partner max 10 µM)",-0.0785,0.573,1,0.371,0.908,0.701,0.138,0.804,0.532,0.929,0.585,0.869,0.356,0.803,0.435,0.464,0.714,0.113,0.885,0.764
"CCc1c2c(nc3ccc(O)cc13)-c1cc3c(c(=O)n1C2)COC(=O)[C@]3(O)CC [SN-38] + O=C(c1cc(Cc2n[nH]c(=O)c3ccccc23)ccc1F)N1CCN(C(=O)C2CC2)CC1 [Olaparib] (first compound max 0.3 µM, 7x7, partner max 10 µM)",0.0359,0.373,0.983,0.775,0.928,–,0.566,0.912,0.24,0.896,–,0.868,0.671,0.843,–,0.636,0.818,–,0.952,1
"Cc1c2c(nn1C)CSCc1cc(n(C)n1)CSc1cc(c3ccccc3c1)OCCCc1c(C(=O)O)n(C)c3c-2c(Cl)ccc13 [AZD5991] + C1CN(CCC1(C(=O)N[C@@H](CCO)C2=CC=C(C=C2)Cl)N)C3=NC=NC4=C3C=CN4 [Capivasertib] (first compound max 1 µM, 7x7, partner max 3 µM)",0.0392,0.257,0.793,0.353,1,0.18,0.629,–,0.18,1,0.553,0.242,0.376,0.934,0.207,0.432,0.227,0.129,1,0.431
"C=CCn1c(=O)c2cnc(Nc3ccc(N4CCN(C)CC4)cc3)nc2n1-c1cccc(C(C)(C)O)n1 [AZD1775] + CCc1c2c(nc3ccc(O)cc13)-c1cc3c(c(=O)n1C2)COC(=O)[C@]3(O)CC [SN-38] (first compound max 1 µM, partner max 0.3 µM)",-0.113,0.612,–,0.783,–,–,0.743,0.946,–,0.971,–,0.965,0.951,0.745,–,0.857,–,–,0.974,–
"C[C@@H](Oc1cc(-c2cnn(C3CCNCC3)c2)cnc1N)c1c(Cl)ccc(F)c1Cl [Crizotinib] + Cn1cnc2c(F)c(Nc3ccc(Br)cc3Cl)c(C(=O)NOCCO)cc21 [Selumetinib] (first compound max 10 µM, 7x7, partner max 10 µM)",-0.0464,0.367,–,0.306,–,–,0.224,0.572,–,0.895,–,0.542,0.381,0.782,–,0.38,–,–,0.999,–
"Cc1c2c(nn1C)CSCc1cc(n(C)n1)CSc1cc(c3ccccc3c1)OCCCc1c(C(=O)O)n(C)c3c-2c(Cl)ccc13 [AZD5991] + CN(C)CCCOc1ccc(-c2ccc3ncc4c(c3c2)n(C2CCOCC2)c(=O)n4C)cn1 [AZD0156] (first compound max 1 µM, 7x7, partner max 1 µM)",0.0103,0.272,0.797,–,1,0.439,0.494,0.179,0.279,0.978,0.635,0.256,0.251,0.812,0.269,0.334,0.243,0.16,1,0.291
